Tests used:
IKZF2 (Helios) [1] = biological target: T1, IKZF2 (Helios) (Homo sapiens, UniProt Q9UKS7); assay: IKZF2 reporter degradation assay (HEK 293T IKZF2-mNeonGreen reporter cell line); assay type: cell-based; settings: HEK 293T IKZF2-mNeonGreen reporter, 24 hours incubation
T1 construct: Leu-Asp junction (codons ctcgac before the linker); mScarlet (behind P2A) (C, cleaved yes); expressed in transfected cells
Summary of the method: (§1)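 Degradation is measured as loss of mNeonGreen fused C-terminally to each human IKZF protein in clonal HEK 293T cells, with co-expressed mScarlet as reference. Treatment lasts 24 h at 37 °C. DC50 is derived by logistic fitting of percent positive cells.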

IKZF2 (Helios) [2] = biological target: T2, IKZF2 (Helios) (Homo sapiens, UniProt Q96SW2+Q9UKS7); assay: as above; assay type: cell-based; settings: HEK-293T, 24 h, @ 1 μM, HEK 293T IKZF2-mNeonGreen reporter, 24 hours incubation
T2 construct: Leu-Asp junction (codons ctcgac before the linker); mScarlet (behind P2A) (C, cleaved yes); expressed in transfected cells
Summary of the method: as §1

[3] = biological target: T3, human E3 ligase component cereblon (CRBN) (Homo sapiens, UniProt Q96SW2); assay: Cereblon (CRBN) target engagement, NanoBRET TE Intracellular E3 Ligase Assay in transfected HEK-293T cells; settings: read-out: CRBN Binding EC50
T3 construct: host or cells: HEK293T
Summary of the method: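 HEK-293T cells transiently co-transfected with NanoLuc-CRBN (N-terminal NanoLuc) and DDB1 were dosed with CRBN tracer and an 11-point compound series (typically 10 μM to 100 pM) for 2 h at 37° C. BRET at 450/610 nm gave IC50 by four-parameter logistic fit.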

IKZF1 (Ikaros) = biological target: T4, IKZF1 (Ikaros) (Homo sapiens, UniProt Q13422); assay: IKZF1 reporter degradation assay (HEK 293T IKZF1-mNeonGreen reporter cell line); assay type: cell-based; settings: HEK 293T IKZF1-mNeonGreen reporter, 24 hours incubation
T4 construct: mScarlet (behind P2A) (C, cleaved yes); expressed in transfected cells
Summary of the method: as §1

IKZF3 (Aiolos) = biological target: T5, IKZF3 (Aiolos) (Homo sapiens, UniProt Q9UKT9); assay: IKZF3 reporter degradation assay (HEK 293T IKZF3-mNeonGreen reporter cell line); assay type: cell-based; settings: HEK 293T IKZF3-mNeonGreen reporter, 24 hours incubation
T5 construct: Leu-Asp junction (codons ctcgac before the linker); mScarlet (behind P2A) (C, cleaved yes); expressed in transfected cells
Summary of the method: as §1

T4 sequence (Q96SW2 whole entry partner): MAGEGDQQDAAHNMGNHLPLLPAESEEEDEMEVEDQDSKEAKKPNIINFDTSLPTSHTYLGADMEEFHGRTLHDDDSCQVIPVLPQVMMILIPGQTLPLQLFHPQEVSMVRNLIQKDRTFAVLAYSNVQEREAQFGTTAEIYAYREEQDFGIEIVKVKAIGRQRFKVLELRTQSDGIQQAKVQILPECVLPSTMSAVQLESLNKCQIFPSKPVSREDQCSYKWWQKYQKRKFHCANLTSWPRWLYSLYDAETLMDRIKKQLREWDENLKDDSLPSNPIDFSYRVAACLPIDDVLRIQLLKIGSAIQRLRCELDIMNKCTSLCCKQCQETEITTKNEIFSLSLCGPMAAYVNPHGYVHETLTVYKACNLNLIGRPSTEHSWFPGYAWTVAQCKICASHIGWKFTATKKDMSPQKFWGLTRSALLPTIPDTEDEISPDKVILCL
T4 sequence (Q16531 whole entry partner): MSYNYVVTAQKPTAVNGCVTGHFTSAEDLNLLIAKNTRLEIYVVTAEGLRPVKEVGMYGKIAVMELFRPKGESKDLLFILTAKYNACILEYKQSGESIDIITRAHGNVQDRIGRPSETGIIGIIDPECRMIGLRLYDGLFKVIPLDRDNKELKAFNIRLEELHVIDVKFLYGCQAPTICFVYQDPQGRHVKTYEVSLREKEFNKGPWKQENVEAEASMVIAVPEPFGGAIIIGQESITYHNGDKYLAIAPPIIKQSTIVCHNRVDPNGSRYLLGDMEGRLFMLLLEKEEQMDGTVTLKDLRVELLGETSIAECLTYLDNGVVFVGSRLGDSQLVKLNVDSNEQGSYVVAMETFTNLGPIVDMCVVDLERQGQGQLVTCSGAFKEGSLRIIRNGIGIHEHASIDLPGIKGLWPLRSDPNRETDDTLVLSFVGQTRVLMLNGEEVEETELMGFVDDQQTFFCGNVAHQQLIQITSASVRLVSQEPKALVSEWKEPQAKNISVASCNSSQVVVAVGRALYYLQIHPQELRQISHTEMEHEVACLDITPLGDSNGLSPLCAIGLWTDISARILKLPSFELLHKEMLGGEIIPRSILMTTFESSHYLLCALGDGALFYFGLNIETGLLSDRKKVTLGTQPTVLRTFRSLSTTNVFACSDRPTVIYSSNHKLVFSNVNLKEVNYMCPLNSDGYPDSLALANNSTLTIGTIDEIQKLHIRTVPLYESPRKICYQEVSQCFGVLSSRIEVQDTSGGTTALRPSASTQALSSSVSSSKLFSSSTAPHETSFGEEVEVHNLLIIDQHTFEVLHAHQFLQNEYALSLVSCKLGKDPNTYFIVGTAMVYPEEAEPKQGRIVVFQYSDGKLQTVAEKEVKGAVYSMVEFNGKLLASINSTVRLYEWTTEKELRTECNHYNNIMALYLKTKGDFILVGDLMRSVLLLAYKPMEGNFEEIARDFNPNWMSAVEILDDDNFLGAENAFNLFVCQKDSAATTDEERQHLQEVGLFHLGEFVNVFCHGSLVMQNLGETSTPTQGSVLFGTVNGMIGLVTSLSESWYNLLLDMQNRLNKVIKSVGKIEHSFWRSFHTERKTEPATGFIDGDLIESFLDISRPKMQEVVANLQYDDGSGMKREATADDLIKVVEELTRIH
T4 sequence (Q13422 whole entry): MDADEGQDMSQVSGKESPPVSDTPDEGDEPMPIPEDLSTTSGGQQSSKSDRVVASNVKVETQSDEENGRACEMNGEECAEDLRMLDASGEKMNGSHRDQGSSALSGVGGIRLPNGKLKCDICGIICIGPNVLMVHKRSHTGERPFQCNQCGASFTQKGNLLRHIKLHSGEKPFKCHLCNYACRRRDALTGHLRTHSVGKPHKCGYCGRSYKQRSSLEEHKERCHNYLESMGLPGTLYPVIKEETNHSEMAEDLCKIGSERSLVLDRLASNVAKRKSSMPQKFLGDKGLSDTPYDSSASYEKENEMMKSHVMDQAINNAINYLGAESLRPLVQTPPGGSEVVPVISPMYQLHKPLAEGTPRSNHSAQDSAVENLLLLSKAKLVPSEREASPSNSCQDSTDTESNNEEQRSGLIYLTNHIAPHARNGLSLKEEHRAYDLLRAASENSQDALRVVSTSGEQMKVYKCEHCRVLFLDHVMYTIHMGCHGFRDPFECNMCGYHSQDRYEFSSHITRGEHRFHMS
T5 sequence (Q96SW2 whole entry partner): as the sequence (Q96SW2 whole entry partner) above
T5 sequence (Q16531 whole entry partner): as the sequence (Q16531 whole entry partner) above
T5 sequence (Q9UKT9 whole entry): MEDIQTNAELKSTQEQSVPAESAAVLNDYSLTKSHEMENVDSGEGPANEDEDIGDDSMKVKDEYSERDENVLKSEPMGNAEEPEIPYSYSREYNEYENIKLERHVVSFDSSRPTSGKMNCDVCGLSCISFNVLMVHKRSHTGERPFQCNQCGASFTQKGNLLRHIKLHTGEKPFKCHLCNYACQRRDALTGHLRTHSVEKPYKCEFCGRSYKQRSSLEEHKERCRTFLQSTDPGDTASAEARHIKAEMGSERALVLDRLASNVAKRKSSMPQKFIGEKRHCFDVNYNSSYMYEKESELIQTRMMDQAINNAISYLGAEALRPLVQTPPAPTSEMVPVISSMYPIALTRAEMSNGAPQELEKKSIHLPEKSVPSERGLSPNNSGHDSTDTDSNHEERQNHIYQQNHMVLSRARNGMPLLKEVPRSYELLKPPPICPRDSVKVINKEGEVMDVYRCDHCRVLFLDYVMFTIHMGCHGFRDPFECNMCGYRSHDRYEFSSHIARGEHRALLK
T3 sequence (Q96SW2 whole entry): as the sequence (Q96SW2 whole entry partner) above
T3 sequence (Q16531 whole entry partner): as the sequence (Q16531 whole entry partner) above
T1 sequence (Q9UKS7 whole entry): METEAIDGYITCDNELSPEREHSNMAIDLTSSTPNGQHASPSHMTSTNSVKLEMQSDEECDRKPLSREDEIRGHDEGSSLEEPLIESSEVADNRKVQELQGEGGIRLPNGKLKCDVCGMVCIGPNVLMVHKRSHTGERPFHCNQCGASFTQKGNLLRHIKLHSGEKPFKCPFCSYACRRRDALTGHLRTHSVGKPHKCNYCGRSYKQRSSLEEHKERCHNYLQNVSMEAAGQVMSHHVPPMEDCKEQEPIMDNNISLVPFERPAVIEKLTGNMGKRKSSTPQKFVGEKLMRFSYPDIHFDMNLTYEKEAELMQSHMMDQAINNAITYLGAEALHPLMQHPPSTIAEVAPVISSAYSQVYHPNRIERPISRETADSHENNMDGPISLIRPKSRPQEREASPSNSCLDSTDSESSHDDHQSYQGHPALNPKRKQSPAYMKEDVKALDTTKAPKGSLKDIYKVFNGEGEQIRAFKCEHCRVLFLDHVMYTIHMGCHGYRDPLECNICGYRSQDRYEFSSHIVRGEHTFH
T1 sequence (Q96SW2 whole entry, further chain): as the sequence (Q96SW2 whole entry partner) above
T1 sequence (Q16531 whole entry partner): as the sequence (Q16531 whole entry partner) above
T2 sequence (Q9UKS7 whole entry): as the sequence (Q9UKS7 whole entry) above
T2 sequence (Q96SW2 whole entry): as the sequence (Q96SW2 whole entry partner) above
T2 sequence (Q16531 whole entry partner): as the sequence (Q16531 whole entry partner) above

Compound | DC50 (IKZF2 (Helios) [1]) [nM] | inhibition at 1 µM (IKZF2 (Helios) [2]) [%] | EC50 [3] [nM] | DC50 (IKZF1 (Ikaros)) [µM] | DC50 (IKZF3 (Aiolos)) [µM]
O=C1CCC(N2Cc3cc(O[C@@H]4CCCC[C@H]4N4CC(c5ccc(Cl)cn5)C4)ccc3C2=O)C(=O)N1 (mixture of isomers) [Compound 163-B, Rac-3-(5-(((trans)-2-(3-(5-chloropyridin-2-yl)azetidin-1-yl)cyclohexyl)oxy)-1-oxoisoindolin-2-yl)piperidine-2,6-dione] | 11 | 71.5 | 11 | > 30 | > 30
O=C1CCC(N2Cc3cc(OC4CCCCC4N4CC(c5ccnc6[nH]ccc56)C4)ccc3C2=O)C(=O)N1 (centres unmarked) [Compound 199-B, 3-(5-((2-(3-(1H-pyrrolo[2,3-b]pyridin-4-yl)azetidin-1-yl)cyclohexyl)oxy)-1-oxoisoindolin-2-yl)piperidine-2,6-dione] | 14 | 75 | 21 | > 30 | > 30
O=C1CCC(N2Cc3cc(OC4CCC[C@@H]4N4CC(c5cccnc5)C4)ccc3C2=O)C(=O)N1 (mixture of isomers) [Compound 207-B, Rac-3-(1-oxo-5-(((cis)-2-(3-(pyridin-3-yl)azetidin-1-yl)cyclopentyl)oxy)isoindolin-2-yl)piperidine-2,6-dione] | 1470 | 24.8 | 104 | > 30 | > 30
O=C1CCC(N2Cc3cc(OC4CCCCC4N4CC(c5cccc6[nH]ncc56)C4)ccc3C2=O)C(=O)N1 (centres unmarked) [Compound 211-B, 3-(5-((2-(3-(2H-indazol-4-yl)azetidin-1-yl)cyclohexyl)oxy)-1-oxoisoindolin-2-yl)piperidine-2,6-dione] | 64 | 79.3 | 28 | > 30 | > 30
O=C1CCC(N2Cc3cc(O[C@H]4CCCC[C@@H]4N4CC(c5ccc(C(F)(F)F)cn5)C4)ccc3C2=O)C(=O)N1 (mixture of isomers) [Compound 192-B, Rac-3-(1-oxo-5-(((trans)-2-(3-(5-(trifluoromethyl)pyridin-2-yl)azetidin-1-yl)cyclohexyl)oxy)isoindolin-2-yl)piperidine-2,6-dione] | 123 | 25.6 | 7 | > 30 | > 30
O=C1CCC(N2Cc3cc(OC4CCCCC4N4CC(c5ccc6cccnc6c5)C4)ccc3C2=O)C(=O)N1 (centres unmarked) [Compound 193-B, 3-(1-oxo-5-((2-(3-(quinolin-7-yl)azetidin-1-yl)cyclohexyl)oxy)isoindolin-2-yl)piperidine-2,6-dione] | 6 | 81.9 | 6 | > 30 | > 30
O=C1CCC(N2Cc3cc(O[C@H]4CCCC[C@@H]4N4CC(c5ncc(C(F)(F)F)cn5)C4)ccc3C2=O)C(=O)N1 (mixture of isomers) [Compound 187-B, Rac-3-(1-oxo-5-(((trans)-2-(3-(5-(trifluoromethyl)pyrimidin-2-yl)azetidin-1-yl)cyclohexyl)oxy)isoindolin-2-yl)piperidine-2,6-dione] | 85 | 27.4 | 6 | > 30 | > 30
O=C1CCC(N2Cc3cc(O[C@@H]4CCCC[C@@H]4N4CC(c5ccncc5Cl)C4)ccc3C2=O)C(=O)N1 (mixture of isomers) [Compound 162-B, Rac-3-(5-(((cis)-2-(3-(3-chloropyridin-4-yl)azetidin-1-yl)cyclohexyl)oxy)-1-oxoisoindolin-2-yl)piperidine-2,6-dione] | 22 | 70.4 | 59 | > 30 | > 30
N#Cc1cc(C2CN([C@@H]3CCCC[C@@H]3Oc3ccc4c(c3)CN(C3CCC(=O)NC3=O)C4=O)C2)ccn1 (mixture of isomers) [Compound 179-B, Rac-4-(1-((cis)-2-((2-(2,6-dioxopiperidin-3-yl)-1-oxoisoindolin-5-yl)oxy)cyclohexyl)azetidin-3-yl)picolinonitrile] | 46 | 68.6 | 39 | > 30 | > 30
O=C1CCC(N2Cc3cc(OC4CCCC4N4CC(c5ccc6cccnc6c5)C4)ccc3C2=O)C(=O)N1 (centres unmarked) [Compound 169-B, 3-(1-oxo-5-((2-(3-(quinolin-7-yl)azetidin-1-yl)cyclopentyl)oxy)isoindolin-2-yl)piperidine-2,6-dione] | 46 | 56.3 | 13 | > 30 | > 30
O=C1CCC(N2Cc3cc(O[C@H]4CCCC[C@@H]4N4CC(c5ccc6[nH]ncc6c5)C4)ccc3C2=O)C(=O)N1 (stereo partly drawn) [Compound 204-B, 3-(5-(((1S,2S)-2-(3-(1H-indazol-5-yl)azetidin-1-yl)cyclohexyl)oxy)-1-oxoisoindolin-2-yl)piperidine-2,6-dione] | 22 | 75.4 | 37 | > 30 | > 30

The next lines start with the values.

DC50 (IKZF2 (Helios) [1]) [nM] | inhibition at 1 µM (IKZF2 (Helios) [2]) [%] | EC50 [3] [nM] | DC50 (IKZF1 (Ikaros)) [µM] | DC50 (IKZF3 (Aiolos)) [µM] | Compound
123 | 21.2 | 13 | > 30 | > 30 | Cc1cnc(C2CN([C@H]3CCCC[C@@H]3Oc3ccc4c(c3)CN(C3CCC(=O)NC3=O)C4=O)C2)nc1 (mixture of isomers) [Compound 189-B, Rac-3-(5-(((trans)-2-(3-(5-methylpyrimidin-2-yl)azetidin-1-yl)cyclohexyl)oxy)-1-oxoisoindolin-2-yl)piperidine-2,6-dione]
28 | 70.3 | 36 | > 30 | > 30 | Cc1cnc(C2CN([C@H]3CCCC[C@H]3Oc3ccc4c(c3)CN(C3CCC(=O)NC3=O)C4=O)C2)o1 (mixture of isomers) [Compound 174-B, Rac-3-(5-(((cis)-2-(3-(5-methyloxazol-2-yl)azetidin-1-yl)cyclohexyl)oxy)-1-oxoisoindolin-2-yl)piperidine-2,6-dione]
71 | 74.3 | 44 | > 30 | > 30 | Cc1nccc(C2CN(C3CCCCC3Oc3ccc4c(c3)CN(C3CCC(=O)NC3=O)C4=O)C2)n1 (centres unmarked) [Compound 190-B, 3-(5-((2-(3-(2-methylpyrimidin-4-yl)azetidin-1-yl)cyclohexyl)oxy)-1-oxoisoindolin-2-yl)piperidine-2,6-dione]
21 | 80.3 | 30 | > 30 | > 30 | Cc1ccnc(C2CN([C@H]3CCCC[C@H]3Oc3ccc4c(c3)CN(C3CCC(=O)NC3=O)C4=O)C2)n1 (mixture of isomers) [Compound 185-B, Rac-3-(5-(((cis)-2-(3-(4-methylpyrimidin-2-yl)azetidin-1-yl)cyclohexyl)oxy)-1-oxoisoindolin-2-yl)piperidine-2,6-dione]
240 | 42 | 44 | > 30 | > 30 | Cc1ccnc(C2CN([C@H]3CCCC[C@@H]3Oc3ccc4c(c3)CN(C3CCC(=O)NC3=O)C4=O)C2)n1 (mixture of isomers) [Compound 188-B, Rac-3-(5-(((trans)-2-(3-(4-methylpyrimidin-2-yl)azetidin-1-yl)cyclohexyl)oxy)-1-oxoisoindolin-2-yl)piperidine-2,6-dione]

Reference: US20250100996A1, “HETEROCYCLOALKYL AND HETEROARYL COMPOUNDS AND PHARMACEUTICAL COMPOSITIONS THAT MODULATE IKZF2” (Plexium, Inc., priority 2021, published 2025)
